Measured values taken from patent US11110149B2, “Method for predicting and monitoring the efficacy of low-dose IL-2 and hydroxychloroquine therapy in autoimmune diseases and its long-term use in autoimmune-related conditions” (KSL BIOMEDICAL INC., priority 2019, dated 2021).

What was measured:
[1] = tested on: Sjögren patients; settings: 120 Sjögren patients, vs placebo, after 6 months of therapy; cited from earlier work
[2] = tested on: SLE and/or pSS; assay: Double-blinded trial of IL-2 plus HCZ regimen: tolerability; assay type: in vivo, human; settings: 1 million IU IL-2 SC every other day and HCZ 200 mg Bid PO every day
[3] = tested on: lupus patients; settings: systematic review, high level of evidence; cited from earlier work

CCN(CCO)CCCC(C)Nc1ccnc2cc(Cl)ccc12 (stereo not shown) [hydroxychloroquine]
Primary symptoms of dryness, pain, or fatigue [1]: no significant improvement
Tolerability of regimen [2]: well tolerated
Decrease of mortality rates in lupus patients [3]: at least 50%
Lupus flares [3]: decreases lupus flares
